Source: patent US6117840A, “CS-1 peptidomimetics, compositions and methods of using the same” (Cytel Corporation, priority 1997, dated 2000)
Like-named read-outs stand apart in the source and are kept apart here. Square brackets hold non-standard residues; d marks the D form. Peptide text beside a SMILES is read from it. * marks the point of attachment. NHOctadecyl = CCCCCCCCCCCCCCCCCCN*; NHPhenethyl = c1ccc(CCN*)cc1; Morpholide = C1CN(*)CCO1; PhAc = O=C(Cc1ccccc1)*; NHBn = c1ccc(CN*)cc1; Ahx = NCCCCCC(=O)O; NHNH2 = NN*

Legend:
Jurkat T cell line = assay: Binding of Jurkat cells to frozen human RA synovial sections; assay type: cell-based; conditions: 10-mer at 500 μg/ml; inhibitor peptide at its IC50
Procedure: Binding studies were carried out using the Jurkat T cell line and frozen RA synovial sections. […] Stimulated MOLT-4 cells behaved similarly.

VLA-4 = target: T1, VLA-4 (Homo sapiens, UniProt P05556+P13612); assay type: cell-based; conditions: relative to standard peptide SEQ ID NO:3 (=1), normalized IC50, about one-tenth or less of SEQ ID NO:3 assigned zero
T1 construct: host or cells: Jurkat (human T lymphoblastic line)
T1 sequence (P13612 34-1032): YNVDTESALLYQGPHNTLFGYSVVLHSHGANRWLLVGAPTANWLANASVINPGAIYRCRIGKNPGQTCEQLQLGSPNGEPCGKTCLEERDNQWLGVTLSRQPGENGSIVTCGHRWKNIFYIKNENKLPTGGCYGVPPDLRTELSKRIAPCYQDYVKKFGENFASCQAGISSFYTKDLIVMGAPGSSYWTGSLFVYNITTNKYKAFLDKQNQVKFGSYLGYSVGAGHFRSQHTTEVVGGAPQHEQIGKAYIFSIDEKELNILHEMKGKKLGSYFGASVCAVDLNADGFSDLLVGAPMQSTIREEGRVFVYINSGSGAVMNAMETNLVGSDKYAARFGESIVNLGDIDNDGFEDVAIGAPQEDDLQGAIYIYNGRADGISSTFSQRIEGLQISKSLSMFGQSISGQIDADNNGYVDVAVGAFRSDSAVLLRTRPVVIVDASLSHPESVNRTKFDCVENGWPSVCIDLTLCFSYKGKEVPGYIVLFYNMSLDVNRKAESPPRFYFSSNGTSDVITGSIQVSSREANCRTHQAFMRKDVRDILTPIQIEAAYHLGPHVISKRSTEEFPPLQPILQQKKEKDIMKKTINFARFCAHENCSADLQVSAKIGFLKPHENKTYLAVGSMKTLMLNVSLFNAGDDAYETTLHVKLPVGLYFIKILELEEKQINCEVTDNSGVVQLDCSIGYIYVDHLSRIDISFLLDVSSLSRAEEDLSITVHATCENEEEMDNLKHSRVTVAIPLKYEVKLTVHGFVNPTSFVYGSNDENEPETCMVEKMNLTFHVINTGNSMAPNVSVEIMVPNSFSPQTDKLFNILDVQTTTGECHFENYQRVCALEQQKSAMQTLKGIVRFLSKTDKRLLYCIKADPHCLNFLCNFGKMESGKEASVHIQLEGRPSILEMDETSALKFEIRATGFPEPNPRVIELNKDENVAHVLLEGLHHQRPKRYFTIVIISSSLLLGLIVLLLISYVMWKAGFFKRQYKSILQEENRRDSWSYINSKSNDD
T1 sequence (P05556 21-798): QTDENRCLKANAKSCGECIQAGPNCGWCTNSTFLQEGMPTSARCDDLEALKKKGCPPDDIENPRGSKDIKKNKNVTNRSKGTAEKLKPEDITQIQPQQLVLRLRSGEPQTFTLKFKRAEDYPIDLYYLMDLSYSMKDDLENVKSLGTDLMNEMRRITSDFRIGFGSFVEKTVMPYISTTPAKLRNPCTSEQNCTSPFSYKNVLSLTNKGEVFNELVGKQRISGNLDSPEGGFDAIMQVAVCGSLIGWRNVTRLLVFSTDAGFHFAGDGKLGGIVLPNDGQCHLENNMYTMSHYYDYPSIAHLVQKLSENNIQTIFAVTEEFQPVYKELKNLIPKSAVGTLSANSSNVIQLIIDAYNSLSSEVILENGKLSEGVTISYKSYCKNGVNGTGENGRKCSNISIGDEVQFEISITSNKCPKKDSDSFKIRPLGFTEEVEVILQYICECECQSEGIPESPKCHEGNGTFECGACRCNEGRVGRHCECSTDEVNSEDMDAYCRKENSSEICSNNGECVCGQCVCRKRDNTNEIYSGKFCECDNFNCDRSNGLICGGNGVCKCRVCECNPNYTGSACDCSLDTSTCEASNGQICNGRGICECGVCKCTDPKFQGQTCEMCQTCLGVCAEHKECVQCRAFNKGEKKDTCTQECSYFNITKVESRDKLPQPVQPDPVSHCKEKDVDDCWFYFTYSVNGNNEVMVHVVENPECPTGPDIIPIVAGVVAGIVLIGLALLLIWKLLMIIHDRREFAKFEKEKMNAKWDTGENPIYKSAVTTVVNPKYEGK
Procedure: Binding inhibition is measured here as a concentration of peptide that inhibits one-half the binding between a standard number of Jurkat cells and a standard amount of CS-1 peptide bound to the surface of a microtiter plate well. Those concentrations are conveniently expressed as IC50 values, smaller numbers indicating a lower concentration required to inhibit 50 percent binding and therefore greater potency. Further specifics of this assay are provided hereinafter.
Jurkat cells (ATCC TIB 152), a human T lymphoblastic line, labeled with ^51 chromium were used to assay in vitro binding inhibition provided by various peptides discussed herein.
The plates were prepared as follows: The 25-mer CS1 peptide (SEQ ID NO:1) dissolved at 0.5-1 μg/ml in a buffer of 0.1M NaHCO3 at pH 9.5 tha also contained 10 μg/ml of bovine serum albumin (BSA) or a conjugate o the CS1 peptide linked to ovalbumin (CS1-OVA) dissolved at 1-2.5 μg/ml in the same buffer was used as the substrate. Each well of the microtiter plates was coated with 50 μl of substrate or buffer alone for controls The wells were permitted to dry out completely and were then rinsed twice with PBS at pH 7.4. Nonspecific binding sites of each well were then blocked using 200 μl per well of RPMI/1 percent BSA for two hours at room temperature. Both solid phaseaffixed substrates provided similar results.
Jurkat cells (3-5×10^6 cells) were placed into a 15 ml Falcon.TM roundbottom tube with a cap. The tube was centrifuged, and the extra medium was then removed.
Two hundred microliters of a ^51 Cr labeling solution were added to th centrifuged cells and maintained in contact with the cells for 90-120 minutes in a warm room. This procedure typically provides about 50,000-100,000 cpm/well with about 80-100 percent cell viability. Longer contact times provide a greater amount of labeling but lower cell viability.
The labeled cells are washed with (i) complete medium, (ii) 1 mM EDTA/PBS and then (iii) RPMI/1 percent BSA free of serum components. The cells are centrifuged after each washing. The cells are finally resuspended in serumfree RPMI/1 percent BSA at a concentration of 1×10^6 viabl cells/ml, which provides a concentration that is diluted by onehalf in th assay.
Inhibitor peptides are prepared as stock solutions at 20 mg/ml in DMSO in 1.5 ml cryogenic screwcap vials, and were stored at -70° C. Using Flow™ roundbottom or Vbottom microtiter plates, the inhibitor peptides were prepared at twice the assay concentration in RPMI/1 percent BSA at 6 μl/well.
Four initial dilutions were typically used.
The ^51 Crlabeled cells (1×10^6 cells at 60 μl/well) were then admixed with the diluted peptide solutions. The admixtures were maintained at room temperature (about 22° C.) for 30 minutes.
One hundred microliters of each inhibitor peptide/cell admixture were transferred to the substratecoated wells. This was done in triplicate for each dilution. The resulting plates were incubated for 30 minutes at 37° C. and then washed gently three times with RPMI/1 percent BSA at 200 μl/well. Binding was observed microscopically, particularly after the second wash.
The bound cells were then lysed by the addition of a 0.5 percent solution of sodium dodecylsulfate in water at 100 μl/well. The resulting solutions were then processed for counting and calculation of IC50 values following usual procedures. Appropriate positive and negative controls were used with each plate so that the results of separate assays could be normalized and compared.

Water solubility = assay type: physicochemical; conditions: forms a turbid dispersion rather than a solution

| SMILES | RELATIVE POTENCY (inhibition of VLA-4 binding CS-1) (VLA-4) | further results |
| --- | --- | --- |
| CC[C@H](C)[C@H](NC(=O)[C@H](CCC(=O)O)NC(=O)[C@@H]1CCCN1C(=O)CN)C(=O)N[C@@H](CC(C)C)C(=O)N[C@@H](CC(=O)O)C(=O)N[C@H](C(=O)N1CCC[C@H]1C(=O)N[C@@H](CO)C(=O)N[C@H](C(=O)O)[C@@H](C)O)C(C)C [G P E I L D V P S T free amine free acid, GPEILDVPST] (H-GPEILDVPST-OH) |  | inhibition of Jurkat cell adhesion to RA synovial sections (Jurkat T cell line): could be inhibited |
| CC(C)C[C@H](NC(=O)Cc1ccccc1)C(=O)N[C@@H](CC(=O)O)C(=O)N[C@@H](Cc1ccccc1)C(N)=O [X L D F phenylacetyl amide] (PhAc-Leu-Asp-Phe-NH2) | < 1 |  |
| CC(C)C[C@H](NC(=O)Cc1ccccc1)C(=O)N[C@@H](CC(=O)O)C(=O)NCC(=O)N1CCOCC1 [X L D G Z phenylacetyl morpholinamide] (PhAc-Leu-Asp-Gly-Morpholide) | 9 |  |
| CC(C)C[C@H](NC(=O)Cc1ccccc1)C(=O)N[C@@H](CC(=O)O)C(=O)N[C@@H](CC(C)C)C(=O)N1CCOCC1 [X L D L Z phenylacetyl morpholinamide] (PhAc-Leu-Asp-Leu-Morpholide) | 291 |  |
| CC(C)C[C@H](NC(=O)Cc1ccccc1)C(=O)N[C@@H](CC(=O)O)C(=O)N[C@@H](CO)C(=O)N1CCC[C@@H]1C(N)=O [X L D S p phenylacetyl amide] (PhAc-LDS[dP]-NH2) | 17 |  |
| CC(C)C[C@H](NC(=O)c1ccccc1)C(=O)N[C@@H](CC(=O)O)C(=O)N[C@H](C(=O)N1CCC[C@H]1C(N)=O)C(C)C [X L D V P benzoyl amide] | 37 | RELATIVE POTENCY (inhibition of VLA-4 binding CS-1) (VLA-4; listed as X L D V p benzoyl amide): 20 |
| CC(C)C[C@H](NC(=O)Cc1ccccc1)C(=O)N[C@@H](CC(=O)O)C(=O)N[C@H](C(=O)N1CCC[C@@H]1C(N)=O)C(C)C [X L D V p phenylacetyl amide, N--phenylacetyl--Leu--Asp--Val--D--Pro--NH2] | 106 |  |
| CC(C)C[C@H](NC(=O)Cc1ccccc1)C(=O)N[C@@H](CC(=O)O)C(=O)N[C@@H](Cc1c[nH]c2ccccc12)C(=O)N1CCC[C@@H]1C(N)=O [X L D W p phenylacetyl amide] (PhAc-LDW[dP]-NH2) | 184 |  |
| CC(C)C[C@H](NC(=O)Cc1ccccc1)C(=O)N[C@@H](CC(=O)O)C(=O)N[C@@H](Cc1ccc(O)cc1)C(=O)N1CCOCC1 [X L D Y Z phenylacetyl morpholinamide, N--phenylacetyl--Leu--Asp--Tyr--morpholinamide] (PhAc-Leu-Asp-Tyr-Morpholide) | 313 |  |
| CC(C)C[C@H](NC(=O)Cc1ccccc1)C(=O)N[C@@H](CC(=O)O)C(=O)N[C@@H](Cc1ccc(O)cc1)C(=O)N1CCC[C@@H]1C(N)=O [X L D Y p phenylacetyl amide, N--phenylacetyl--Leu--Asp--Tyr--D--Pro--NH2] (PhAc-LDY[dP]-NH2) | 640 | RELATIVE POTENCY (inhibition of VLA-4 binding CS-1) (VLA-4; listed as X L D Y P phenylacetyl amide): 405 |
| CC(C)C[C@H](NC(=O)Cc1ccccc1)C(=O)N[C@@H](CC(=O)O)C(=O)NNC(=O)OC(C)(C)C [X L D Z phenylacetyl N'-t-Boc-hydrazide] | 2 |  |
| CC(C)C[C@H](NC(=O)Cc1ccccc1)C(=O)N[C@@H](CC(=O)O)C(=O)NCc1ccccc1 [X L D Z phenylacetyl benzylamide] (PhAc-Leu-Asp-NHBn) | 19 |  |
| CC(C)C[C@H](NC(=O)Cc1ccccc1)C(=O)N[C@@H](CC(=O)O)C(=O)NC(c1ccccc1)c1ccccc1 [X L D Z phenylacetyl benzylhydrylamide] | 3 |  |
| CC(C)C[C@H](NC(=O)Cc1ccccc1)C(=O)N[C@@H](CC(=O)O)C(=O)N(Cc1ccccc1)Cc1ccccc1 [X L D Z phenylacetyl dibenzylamide] | 0 |  |
| CC(C)C[C@H](NC(=O)Cc1ccccc1)C(=O)N[C@@H](CC(=O)O)C(=O)NN [X L D Z phenylacetyl hydrazide] (PhAc-Leu-Asp-NHNH2) | < 1 |  |
| CC(C)C[C@H](NC(=O)Cc1ccccc1)C(=O)N[C@@H](CC(=O)O)C(=O)NCCc1ccccc1 [X L D Z phenylacetyl phenethylamide] (PhAc-Leu-Asp-NHPhenethyl) | 19 |  |
| CCCCCCCCCCCCCCCCCCNC(=O)CCCCCNC(=O)[C@@H]1CCCN1C(=O)[C@H](Cc1ccccc1)NC(=O)[C@H](CC(=O)O)NC(=O)[C@H](CC(C)C)NC(=O)Cc1ccccc1 [phenylacetyl--Leu--Asp--Phe--Pro--NH(CH2)5 C(O)NHC18 H37] (PhAc-LDFP[Ahx]-NHOctadecyl; C-terminus assumed) |  | water solubility (Water solubility): not water-soluble |
